Assay results: US20190160035A1, “METHOD OF TREATMENT” (QBIOTICS LIMITED, priority 2016, published 2019)
Entries after “also recorded” stand apart in the source; their conditions may differ.

What was measured:
[1] = system: cutaneous Mast Cell Tumor (MCT); assay: Example 3: long term follow up of cohort 1 dogs for tumor recurrence; type: in vivo; as to Tumor recurrence at case follow-up post treatment: key: Nil=no tumor recurrence
Protocol: The dogs of cohort 1 in Example 2, treated with 1.0 mg Compound 1 per mL, were followed up post-treatment.
Dog GCV-209 was treated by surgical removal of residual tumor soon after study completion (Day 21).

[2] = system: cutaneous Mast Cell Tumor (MCT); assay: Example 2: dose de-escalation study (1.0, 0.5, 0.2 mg/mL; 0.5 mL per cm^3 tumor), RECIST v.1.1 tumor response; type: in vivo, dogs; conditions: for RECIST classification: Day 21, one value per dog
Protocol: A multi-site, unmasked, uncontrolled, non-randomized dosage characterization study in dogs was performed under field conditions using dose de-escalation.
Dogs were enrolled in the study as they presented to participating veterinary practices meeting the necessary eligibility criteria. As the study design was a dose de-escalation study, dogs were allocated to the highest dose initially (1.0 mg Compound 1 per mL). Each dose comprised a total cohort of 10 dogs participating across all clinics. Once the cohort of 10 dogs was treated at the highest dose, subsequent dogs were assigned to the 2nd cohort (0.5 mg Compound 1 per mL) and dosing continued through de-escalation until completion of 7 evaluable enrolments in the 3rd cohort (0.2 mg Compound 1 per mL).
Each Compound 1 preparation (1.0, 0.5, and 0.2 mg/mL) was pre-prepared in a 30% propylene glycol, 30 mM Acetate buffer pH 4.0 solution.
Compound 1 was administered to each dog at 0.5 mL per cm^3 of tumor volume as determined on the day of dosing. Digital calipers were used to measure tumor axes.
Wherever possible, the tumor and a 2 cm border surrounding the tumor was shaved prior to treatment. To deliver the drug formulation, the needle of the dosing syringe was inserted into the tumor at the injection point and moved in a radial manner in 2- and 3-dimensions with approximately 0.1 mL of formulation delivered to each 0.2 cm^3 of tumor mass. Study dogs were clinically examined at approximately 24 and 48 hours, 7, 14 and 21 days post-treatment.
Prophylactic and supportive medications considered for use in this study to prevent paraneoplastic MCT-induced adverse events such as Darier's sign and gastric upset included cetrizine, chlorpheniramine, omeprazole, acetylpromazine, methadone and meloxicam. Some supportive therapies were given up to 5 days post treatment (see Table 14). Additional approved supportive therapies (if required) included fentanyl (patch) or tramadol analgesia, or antibiotic (amoxicillin/clavulanic acid).
Determination of efficacy was based on objective tumor measurements made according to the RECIST v.1.1 guidelines (Eisenhauer et al., 2009) using unidirectional tumor measurements.
Pairwise comparison of categorical responses to treatment between treatment groups at each time point post-treatment were compared using Fisher's Exact Test. Using the RECIST classification (Eisenhauer et al., 2009), tumor data was analysed to determine the effectiveness of, and differences between, treatments. Generalised linear modeling was used to examine the combined effects of treatment dose, time post-treatment and other potentially explanatory variables. Generalised estimating equations with appropriate error structure (and controlled for repeated measurements of individuals) were used to examine categorical response to treatment and changes in tumor volume measurement. Tumor volume analysis was also controlled for pre-treatment tumor volume.
MCT measurements were recorded using digital calipers. Measurements were taken pre-treatment and at 7(±1), 14(±1) and 21(±2) days post treatment. The length (cm) was designated the longest measurable axis; the width (cm) was the tumor at the widest point perpendicular to the length; gentle manipulation of the MCT to measure the depth (cm) using the calipers was considered acceptable. Determination of efficacy was based on objective tumor measurements made according to the RECIST v.1.1 guideline using the longest unidirectional measurement (Eisenhauer et al. 2009) recorded at each timepoint. RECIST criteria were only applied to target lesions as Compound 1 is not intended as a systemic therapy. […] RECIST v.1.1 results are summarized below in Table 18.

[3] = system: MCT (cutaneous and subcutaneous); assay: Example 7: treatment of MCT (repeat of Example 1), complete response and healing by time point; type: in vivo, dogs; conditions: for Complete response: Cumulative % / Complete response: Number of tumors on given study day: 11 treated tumors in 10 dogs; for Healing: Cumulative % / Healing: Number of tumor sites healed on given study day: 11 treated tumors
Protocol: The study of Example 1 was repeated. The drug used was Compound 1 formulated in 40% propylene glycol and 30 MM acetate buffer at pH 4.2.
While tumor evaluation and measurement data for 11 cases are presented, this actually represents only 10 dogs, one of which had two tumors treated consecutively (identified as cases SI-01 and SI-02). PK sampling was performed only once for this dog (SI-01).
Of the other ten tumors, nine were considered CR by day 7 (+2) and one was CR by day 14 (+2). The investigator also reported that all of these tumors remained a CR on day 28 […].
Healing was more variable for the cases, with one healed at the day 14 visit and over half the tumor sites healed by the day 28 visit. The two cases with the largest tumor volumes at day 0 (SI-04 5.6 cm^3, and SI-11 6.8 cm^3) required healing time beyond the day 28 visit, i.e., an additional four weeks for SI-04 and an additional 19.7 weeks for SI-11. For SI-11, it was noted the dog was licking the tumor site and the investigator felt it may have prolonged the healing time. The investigator believed the wound required intervention on this case that included debridement once on study day 56 followed by periodic bandage replacement.

## C/C=C(\C)C(=O)O[C@@H]1[C@@H](C)[C@@]2(O)[C@H]([C@@H]3C(C)(C)[C@]13OC(=O)[C@@H](C)CC)[C@@H]1O[C@]1(CO)[C@@H](O)[C@]1(O)C(=O)C(C)=C[C@H]12 [Compound 1, 12-tigloyl-13-(2-methylbutanoyl)-6,7-epoxy-4,5,9,12,13,20-hexahydroxy-1-tigliaen-3-one]
[1]; 8 dogs, examined out to 11.9 to 15.0 months post treatment
  Tumor recurrence at the treatment site during the post treatment examination period: No tumor recurrence
[1]; cohort 1 dogs (1.0 mg/mL), one value per dog and examination, months 1-14 post treatment
  Tumor recurrence at case follow-up post treatment: Nil
[1]; dog NVC-110, 42 days after study completion
  Day on which tumor recurrence was reported: 63 days
[2]; cohort 1, 1.0 mg/mL, 10 dogs
  Number of dogs with complete response (CR): 9
[2]; cohort 2, 0.5 mg Compound 1/mL
  RECIST classification: PR (partial response (PR, at least 30% decrease in the longest diameter of target lesion)); also recorded: PD (progressive disease (PD, greater than 20% increase in the target lesion))
[2]; cohort 2, 0.5 mg/mL, 10 dogs
  Number of dogs with complete response (CR): 5
  Number of dogs with partial response (PR): 1
  Number of dogs with progressive disease (PD): 1
[2]; cohort 3, 0.2 mg Compound 1/mL
  RECIST classification: PR (partial response (PR, at least 30% decrease in the longest diameter of target lesion))
[2]; cohort 3, 0.2 mg/mL
  Number of dogs showing efficacy (greater than a 70% reduction in tumor volume at 21 days): < 3
[2]; cohort 3, 0.2 mg/mL, 7 dogs
  Number of dogs with complete response (CR): 2
  Number of dogs with partial response (PR): 1
[2]; dog GCV-107, cohort 1
  Mitotic nuclei in post-surgical biopsy material of residual tumor: no mitotic nuclei identified
[2]; dog GCV-107, cohort 1, Day 21
  Total tumor volume reduction (modified ellipsoidal calculation): 36%
[2]; dog GCV-107, cohort 1, by Day 21
  Unidirectional tumor measurement (length) decrease: 23%
[3]; SI-01, SI-02, SI-04, SI-05, SI-10, on or before the day 14 visit
  Response of the five cases with leakage of IVP upon injection: complete response
[3]; Study day 7 (+2)
  Complete response: Cumulative %: 82%
  Complete response: Number of tumors on given study day: 9
[3]; Study day 14 (+2)
  Healing: Cumulative %: 9%
  Healing: Number of tumor sites healed on given study day: 1
  Complete response: Cumulative %: 91%
  Complete response: Number of tumors on given study day: 1
[3]; Study day 28 (+4)
  Healing: Cumulative %: 55%
  Healing: Number of tumor sites healed on given study day: 5
[3]; Study day 33
  Healing: Cumulative %: 64%
  Healing: Number of tumor sites healed on given study day: 1
[3]; Study day 42
  Healing: Cumulative %: 73%
  Healing: Number of tumor sites healed on given study day: 1
[3]; Study day 56
  Healing: Cumulative %: 82%
  Healing: Number of tumor sites healed on given study day: 1
[3]; Study day 166
  Healing: Cumulative %: 91%
  Healing: Number of tumor sites healed on given study day: 1
[3]; all tumors with the exception of SI-03
  Change of tumor volumes after drug treatment: decreased in size
[3]; case SI-03, withdrawn after day 28 visit
  Course of MCT despite drug treatment: continued to enlarge
[3]; case SI-11, tumor volume 6.8 cm^3 at day 0, dog licking site, debridement day 56
  Additional healing time beyond the day 28 visit: 19.7 weeks
[3]; investigator report
  Status of the ten responding tumors on day 28 (+4): remained a CR
[3]; of 11 tumors
  Number of tumors with a complete response (CR) during the study: Ten
  Percent of tumors with a complete response (CR) during the study: 90.9%
[3]; of ten responding tumors
  Number of tumors considered CR by day 7 (+2): nine
[3]; of ten responding tumors, not CR by day 7
  Number of tumors CR by day 14 (+2): one
[3]; tumor site healing
  Number of cases healed at the day 14 visit: one
  Share of tumor sites healed by the day 28 visit: over half
